Data: ChEMBL document CHEMBL3352279, “Synthesis and Structure-Activity Relationship Study of 5a-Carbasugar Analogues of SL0101” (ACS Med Chem Lett, 2015)
One block for each compound: values may come before it. Activity calls are given as the source filed them. The calls are words filed in the database; no cut-off is given here.

Key:
MCF7 [1] = experiment: Reduction in cyclin D1 in PMA-stimulated human MCF7 cells at 100 uM by immunoblotting analysis; format: functional, cell-based
MCF7 [2] = experiment: Increase in phosphorylation motif of protein kinase A in human MCF7 cells at 100 uM by immunoblotting analysis; format: cell-based
[3] = target: Ribosomal protein S6 kinase alpha-1 (Homo sapiens) (UniProt Q15418); experiment: Inhibition of RSK in PMA-stimulated human MCF7 cells assessed as increase in phosphorylation of eEF2 at 100 uM by immunoblotting analysis; format: cell-based
MCF7 [4] = experiment: Antiproliferative activity against human MCF7 cells at 100 uM after 48 hrs by CellTiterGlo assay; format: functional
[5] = target: Ribosomal protein S6 kinase alpha-1 (Homo sapiens) (UniProt Q15418); experiment: Inhibition of RSK in PMA-stimulated human MCF7 cells assessed as decrease in intensity of band at 65 and 27 kDa at 100 uM by immunoblotting analysis; format: cell-based
[6] = target: Ribosomal protein S6 kinase alpha-3 (Homo sapiens, UniProt P51812); experiment: Inhibition of RSK2 (unknown origin) assessed as phosphorylation by Western lightning enhanced chemiluminescent reagent/HRP activity assay
MCF7 [7] = experiment: Antiproliferative activity against human MCF7 cells at 50 uM after 48 hrs by CellTiterGlo assay; format: functional, cell-based
MCF7 [8] = experiment: Reduction in cyclin D1 in PMA-stimulated human MCF7 cells at 50 uM by immunoblotting analysis; format: functional, cell-based
MCF7 [9] = experiment: Antiproliferative activity against human MCF7 cells at 25 uM after 48 hrs by CellTiterGlo assay; format: functional; conditions: MCF7, 48 h
[10] = target: Protein kinase C (PKC) (Homo sapiens) (UniProt O94806+P41743+P17252+P05129+Q05655+P05771+Q05513+Q02156+P24723+Q15139+Q04759); experiment: Effect on phosphorylation motif of protein kinase C in human MCF7 cells at 50 uM by immunoblotting analysis; format: cell-based
MCF-10A [11] = experiment: Antiproliferative activity against human MCF10A cells at 50 uM after 48 hrs by CellTiterGlo assay; format: functional, cell-based
MCF7 [12] = experiment: Effect on phosphorylation motif of tyrosine kinase in human MCF7 cells at 50 uM by immunoblotting analysis; format: cell-based
[13] = target: Ribosomal protein S6 kinase alpha-1 (Homo sapiens) (UniProt Q15418); experiment: Inhibition of RSK in PMA-stimulated human MCF7 cells assessed as increase in phosphorylation of eEF2 at 50 uM by immunoblotting analysis; format: cell-based
MCF-10A [14] = experiment: Antiproliferative activity against human MCF10A cells at 25 uM after 48 hrs by CellTiterGlo assay; format: functional, cell-based
MCF7 [15] = experiment: Increase in phosphorylation motif of protein kinase A in human MCF7 cells at 50 uM by immunoblotting analysis; format: cell-based
[16] = target: Ribosomal protein S6 kinase alpha-1 (Homo sapiens) (UniProt Q15418); experiment: Inhibition of RSK in PMA-stimulated human MCF7 cells assessed as decrease in intensity of band at 65 and 27 kDa at 50 uM by immunoblotting analysis; format: cell-based
MCF-10A [17] = experiment: Antiproliferative activity against human MCF10A cells at 100 uM after 48 hrs by CellTiterGlo assay; format: functional, cell-based

Ribosomal protein S6 kinase alpha-1 (Homo sapiens), sequence (Q15418 whole entry): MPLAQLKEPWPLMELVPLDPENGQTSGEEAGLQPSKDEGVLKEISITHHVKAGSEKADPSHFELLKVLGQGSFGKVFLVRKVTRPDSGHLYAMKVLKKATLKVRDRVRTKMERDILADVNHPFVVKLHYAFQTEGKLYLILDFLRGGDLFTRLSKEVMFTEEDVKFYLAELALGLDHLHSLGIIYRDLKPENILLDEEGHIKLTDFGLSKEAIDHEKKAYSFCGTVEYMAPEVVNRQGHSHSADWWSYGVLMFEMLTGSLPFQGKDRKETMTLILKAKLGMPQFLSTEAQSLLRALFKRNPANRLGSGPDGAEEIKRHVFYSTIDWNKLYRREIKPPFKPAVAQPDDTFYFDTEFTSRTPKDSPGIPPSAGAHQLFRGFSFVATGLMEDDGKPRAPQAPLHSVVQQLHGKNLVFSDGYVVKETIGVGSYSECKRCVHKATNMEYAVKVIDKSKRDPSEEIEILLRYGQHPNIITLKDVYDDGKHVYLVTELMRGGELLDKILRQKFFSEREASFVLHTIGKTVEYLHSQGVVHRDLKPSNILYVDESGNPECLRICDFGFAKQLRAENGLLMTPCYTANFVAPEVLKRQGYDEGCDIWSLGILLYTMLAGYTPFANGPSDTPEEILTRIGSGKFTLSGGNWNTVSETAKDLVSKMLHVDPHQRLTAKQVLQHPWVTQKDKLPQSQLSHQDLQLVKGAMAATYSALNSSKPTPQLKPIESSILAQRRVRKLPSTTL
Ribosomal protein S6 kinase alpha-3, sequence (P51812 whole entry): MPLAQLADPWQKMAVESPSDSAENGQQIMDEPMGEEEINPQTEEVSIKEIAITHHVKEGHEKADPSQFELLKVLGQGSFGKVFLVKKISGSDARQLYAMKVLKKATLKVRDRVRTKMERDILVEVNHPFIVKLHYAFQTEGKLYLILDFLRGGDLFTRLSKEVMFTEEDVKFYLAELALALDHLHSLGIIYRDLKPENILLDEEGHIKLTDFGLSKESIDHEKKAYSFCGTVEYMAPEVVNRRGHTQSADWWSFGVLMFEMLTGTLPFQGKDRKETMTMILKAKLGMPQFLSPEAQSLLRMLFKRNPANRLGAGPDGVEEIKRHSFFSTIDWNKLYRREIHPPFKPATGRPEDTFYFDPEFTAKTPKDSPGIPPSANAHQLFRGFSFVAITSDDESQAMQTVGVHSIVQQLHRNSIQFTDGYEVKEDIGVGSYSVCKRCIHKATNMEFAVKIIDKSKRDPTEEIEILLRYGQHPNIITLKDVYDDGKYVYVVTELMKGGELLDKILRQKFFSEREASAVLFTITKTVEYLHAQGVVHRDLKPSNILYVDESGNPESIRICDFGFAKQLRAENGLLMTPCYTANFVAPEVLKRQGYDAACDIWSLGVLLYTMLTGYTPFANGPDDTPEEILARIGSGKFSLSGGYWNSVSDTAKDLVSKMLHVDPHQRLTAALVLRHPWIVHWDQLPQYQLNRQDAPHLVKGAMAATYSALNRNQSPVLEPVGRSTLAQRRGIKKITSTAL

Activity [3]: Active | inhibition [5]: Active
Compound: CC(=O)O[C@@H]1[C@@H](OC(C)=O)[C@@H](O)[C@H](Oc2c(-c3ccc(O)cc3)oc3cc(O)cc(O)c3c2=O)O[C@H]1C
inhibition (MCF7 [1]): Active | Activity (MCF7 [2]): Active | inhibition at 100 µM (MCF7 [4]; MCF7, 48 h): 60%

IC50 [6]: Not Active
Compound: CC(=O)O[C@H]1[C@@H](O)[C@H](OC(C)=O)[C@@H](C)C[C@@H]1Oc1c(-c2ccc(O)cc2)oc2cc(O)cc(O)c2c1=O

IC50 [6]: Not Active
Compound: CC(=O)O[C@@H]1[C@H](O)[C@@H](Oc2c(-c3ccc(O)cc3)oc3cc(O)cc(O)c3c2=O)C[C@H](C)[C@H]1OC(C)=O

IC50 [6]: Not Active
Compound: CC(=O)O[C@@H]1[C@H](O)[C@@H](Oc2c(-c3ccc(O)cc3)oc3cc(O)cc(O)c3c2=O)CC[C@H]1OC(C)=O

Activity [10]: inactive | Activity [13]: Active | inhibition [16]: inactive | IC50 ([6]; read-out: IC50): 270 nM
Compound: CC(=O)O[C@@H]1[C@@H](OC(C)=O)[C@@H](O)[C@H](Oc2c(-c3ccc(O)cc3)oc3cc(O)cc(O)c3c2=O)C[C@H]1C
inhibition (MCF7 [7]): Active | Activity (MCF7 [8]): inactive | inhibition at 25 µM (MCF7 [9]): 60% | inhibition (MCF-10A [11]): Active | Activity (MCF7 [12]): inactive | inhibition (MCF-10A [14]): Active | Activity (MCF7 [15]): inactive

IC50 ([6]; read-out: IC50): 8930 nM
Compound: CC(=O)O[C@H]1[C@@H](O)[C@H](Oc2c(-c3ccc(O)cc3)oc3cc(O)cc(O)c3c2=O)CC[C@@H]1OC(C)=O

IC50 [6]: Not Active
Compound: CC(=O)O[C@H]1[C@H](O)[C@H](O)[C@@H](Oc2c(-c3ccc(O)cc3)oc3cc(O)cc(O)c3c2=O)C[C@@H]1C
inhibition (MCF-10A [17]): inactive | inhibition (MCF7 [4]): inactive

Activity [10]: inactive | Activity [13]: Active | inhibition [16]: inactive | IC50 ([6]; read-out: IC50): 1600 nM
Compound: CC(=O)O[C@@H]1[C@@H](O)[C@@H](OC(C)=O)[C@H](Oc2c(-c3ccc(O)cc3)oc3cc(O)cc(O)c3c2=O)C[C@H]1C
inhibition (MCF7 [7]): Active | Activity (MCF7 [8]): inactive | inhibition (MCF-10A [11]): Active | Activity (MCF7 [12]): inactive | Activity (MCF7 [15]): inactive

IC50 ([6]; read-out: IC50): 1230 nM
Compound: CC(=O)O[C@@H]1[C@@H](O)[C@@H](O)[C@H](Oc2c(-c3ccc(O)cc3)oc3cc(O)cc(O)c3c2=O)C[C@H]1C
inhibition (MCF-10A [17]): Active | inhibition (MCF7 [4]): Active
